Reference: US9382234B2, “Enhancer of Zeste Homolog 2 inhibitors” (GlaxoSmithKline LLC, priority 2012, dated 2016)

What follows are molecules tested against T1, EZH2 within the PRC2 complex (Homo sapiens, UniProt Q15910) (assay: EZH2 methyltransferase scintillation proximity assay (SPA) with PRC2 complex). Conditions: 3H-SAM methyl transfer to Histone H3 of HeLa mononucleosomes; 30 min preincubation, 1 hour reaction.
T1 construct: FLAG; made in house; host or cells: Sf9 cells
Assay type: biochemical

T1 sequence (Q15910 whole entry): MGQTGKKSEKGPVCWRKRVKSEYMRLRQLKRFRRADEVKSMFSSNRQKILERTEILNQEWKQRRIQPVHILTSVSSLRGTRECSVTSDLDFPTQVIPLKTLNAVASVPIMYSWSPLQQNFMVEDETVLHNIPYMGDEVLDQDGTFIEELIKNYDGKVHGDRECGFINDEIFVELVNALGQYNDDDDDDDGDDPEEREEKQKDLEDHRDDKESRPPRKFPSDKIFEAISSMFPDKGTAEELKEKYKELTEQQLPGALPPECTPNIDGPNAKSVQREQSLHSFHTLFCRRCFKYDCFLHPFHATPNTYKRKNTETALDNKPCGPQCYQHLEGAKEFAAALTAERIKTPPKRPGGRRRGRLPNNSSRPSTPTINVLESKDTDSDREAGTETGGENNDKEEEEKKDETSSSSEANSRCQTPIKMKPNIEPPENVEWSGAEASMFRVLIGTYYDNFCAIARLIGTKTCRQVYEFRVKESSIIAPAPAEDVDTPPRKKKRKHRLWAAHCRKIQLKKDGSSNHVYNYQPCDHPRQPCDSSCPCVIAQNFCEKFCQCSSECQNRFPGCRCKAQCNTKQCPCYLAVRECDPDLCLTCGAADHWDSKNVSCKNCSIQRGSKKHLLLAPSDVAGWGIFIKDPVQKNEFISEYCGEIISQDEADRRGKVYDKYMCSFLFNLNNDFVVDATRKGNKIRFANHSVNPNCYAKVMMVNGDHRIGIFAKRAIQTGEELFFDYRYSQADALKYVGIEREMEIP
T1 sequence (O75530 whole entry partner): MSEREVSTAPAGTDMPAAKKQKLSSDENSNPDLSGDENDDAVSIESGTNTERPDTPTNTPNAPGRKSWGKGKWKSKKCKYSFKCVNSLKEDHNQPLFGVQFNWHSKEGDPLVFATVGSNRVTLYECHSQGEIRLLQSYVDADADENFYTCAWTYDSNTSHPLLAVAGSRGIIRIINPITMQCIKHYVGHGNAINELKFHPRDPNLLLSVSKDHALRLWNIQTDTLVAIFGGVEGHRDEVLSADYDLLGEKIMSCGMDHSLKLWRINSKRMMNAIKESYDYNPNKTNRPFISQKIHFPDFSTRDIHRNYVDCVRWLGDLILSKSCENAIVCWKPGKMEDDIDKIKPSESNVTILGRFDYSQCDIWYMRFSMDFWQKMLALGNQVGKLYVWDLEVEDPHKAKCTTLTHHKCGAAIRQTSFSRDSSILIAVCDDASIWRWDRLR
T1 sequence (Q15022 whole entry partner): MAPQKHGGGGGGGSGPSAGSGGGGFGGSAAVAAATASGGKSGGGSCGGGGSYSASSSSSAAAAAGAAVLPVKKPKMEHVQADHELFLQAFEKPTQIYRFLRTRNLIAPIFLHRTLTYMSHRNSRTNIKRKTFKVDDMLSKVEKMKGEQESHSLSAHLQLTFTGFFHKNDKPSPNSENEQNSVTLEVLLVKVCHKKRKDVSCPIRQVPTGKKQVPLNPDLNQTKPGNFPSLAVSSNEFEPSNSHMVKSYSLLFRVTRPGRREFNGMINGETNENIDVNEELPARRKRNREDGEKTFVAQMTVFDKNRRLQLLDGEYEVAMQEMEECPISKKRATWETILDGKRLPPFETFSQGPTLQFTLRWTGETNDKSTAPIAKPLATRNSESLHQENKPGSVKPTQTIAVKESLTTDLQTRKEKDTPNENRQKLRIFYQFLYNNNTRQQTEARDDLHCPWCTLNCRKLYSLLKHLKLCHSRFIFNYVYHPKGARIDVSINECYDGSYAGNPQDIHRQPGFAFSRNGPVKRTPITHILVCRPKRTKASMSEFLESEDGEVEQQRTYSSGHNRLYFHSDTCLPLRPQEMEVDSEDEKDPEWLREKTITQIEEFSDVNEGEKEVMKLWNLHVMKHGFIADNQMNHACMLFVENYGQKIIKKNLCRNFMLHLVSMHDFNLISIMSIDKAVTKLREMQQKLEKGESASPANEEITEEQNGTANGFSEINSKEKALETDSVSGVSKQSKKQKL
T1 sequence (Q09028 whole entry partner): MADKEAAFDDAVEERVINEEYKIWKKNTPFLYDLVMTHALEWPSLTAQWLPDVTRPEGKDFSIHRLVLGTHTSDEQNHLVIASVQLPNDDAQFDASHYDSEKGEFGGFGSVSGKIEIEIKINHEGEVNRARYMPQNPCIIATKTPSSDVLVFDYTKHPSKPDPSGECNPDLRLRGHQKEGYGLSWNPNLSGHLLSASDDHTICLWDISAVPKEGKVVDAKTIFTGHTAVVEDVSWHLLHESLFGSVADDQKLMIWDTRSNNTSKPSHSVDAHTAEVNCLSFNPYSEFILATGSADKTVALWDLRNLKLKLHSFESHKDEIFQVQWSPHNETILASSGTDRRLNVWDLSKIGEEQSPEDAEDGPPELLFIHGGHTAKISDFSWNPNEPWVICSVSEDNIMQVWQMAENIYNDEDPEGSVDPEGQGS
T1 sequence (Q6ZN18 whole entry partner): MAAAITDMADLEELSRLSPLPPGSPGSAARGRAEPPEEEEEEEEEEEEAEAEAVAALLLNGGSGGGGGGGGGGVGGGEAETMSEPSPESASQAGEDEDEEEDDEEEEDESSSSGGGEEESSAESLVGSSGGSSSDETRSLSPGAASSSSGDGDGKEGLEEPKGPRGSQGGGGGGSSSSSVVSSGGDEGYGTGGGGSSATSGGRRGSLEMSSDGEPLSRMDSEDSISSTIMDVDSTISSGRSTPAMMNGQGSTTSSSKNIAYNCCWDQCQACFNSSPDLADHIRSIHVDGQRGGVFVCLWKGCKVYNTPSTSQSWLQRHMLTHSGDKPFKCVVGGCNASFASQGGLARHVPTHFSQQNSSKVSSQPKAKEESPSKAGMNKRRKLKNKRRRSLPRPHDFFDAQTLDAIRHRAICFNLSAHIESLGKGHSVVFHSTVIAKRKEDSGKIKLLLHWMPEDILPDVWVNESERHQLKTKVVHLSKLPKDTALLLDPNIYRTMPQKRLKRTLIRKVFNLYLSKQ

SMILES	IC50 [µM]
Cc1cc(=O)c(CNC(=O)c2cc(Cl)cc(OC3CCN(C(=O)OCc4ccccc4)CC3)c2C)c(C)[nH]1 [Example 1, Benzyl 4-(5-chloro-3-(((2,6-dimethyl-4-oxo-1,4-dihydropyridin-3-yl)methyl)carbamoyl) -2-methylphenoxy)piperidine-1-carboxylate]	0.2
Cc1cc(=O)c(CNC(=O)c2cc(Cl)cc(OC3CCOCC3)c2C)c(C)[nH]1 [Example 2, 5-Chloro-N-((2,6-dimethyl-4-oxo-1,4-dihydropyridin-3-yl)methyl)-2-methyl-3-((tetrahydro-2H-pyran-4-yl)oxy)benzamide]	6.31
Cc1cc(=O)c(CNC(=O)c2cc(Cl)cc(OC3CCN(c4ccncn4)CC3)c2C)c(C)[nH]1 [Example 3, 5-Chloro-N-((2,6-dimethyl-4-oxo-1,4-dihydropyridin-3-yl)methyl)-2-methyl-3-((1-(pyrimidin-4-yl)piperidin-4-yl)oxy)benzamide]	0.251
Cc1cc(=O)c(CNC(=O)c2cc(Cl)cc(O[C@H]3CC[C@H](C(=O)NCc4ccccc4)CC3)c2C)c(C)[nH]1 [Example 4, 3-(((trans)-4-(Benzylcarbamoyl)cyclohexyl)oxy)-5-chloro-N-((2,6-dimethyl-4-oxo-1,4-dihydropyridin-3-yl)methyl)-2-methylbenzamide]	0.04
Cc1cc(=O)c(CNC(=O)c2cc(Cl)cc(OC3CCN(c4ccncn4)CC3)c2C)c(C)o1 [Example 5, 5-Chloro-N-((2,6-dimethyl-4-oxo-4H-pyran-3-yl)methyl)-2-methyl-3-((1-(pyrimidin-4-yl)piperidin-4-yl)oxy)benzamide]	3.16
CCN(c1cc(Cl)cc(C(=O)NCc2c(C)oc(C)cc2=O)c1C)[C@H]1CC[C@H](N(C)C)CC1 [Example 6, 5-Chloro-N-((2,6-dimethyl-4-oxo-4H-pyran-3-yl)methyl)-3-(((trans)-4-(dimethylamino)cyclohexyl)(ethyl)amino)-2-methylbenzamide]	0.04
Cc1cc(=O)c(CNC(=O)c2cc(Cl)cc(OC3CCN(C(=O)OC(C)(C)C)CC3)c2C)c(C)[nH]1 [Example 8, tert-Butyl 4-(5-chloro-3-(((2,6-dimethyl-4-oxo-1,4-dihydropyridin-3-yl)methyl)carbamoyl)-2-methylphenoxy)piperidine-1-carboxylate]	0.795
Cc1cc(=O)c(CNC(=O)c2cc(Cl)cc(OC3CCNCC3)c2C)c(C)[nH]1 [Example 9, 5-Chloro-N-((2,6-dimethyl-4-oxo-1,4-dihydropyridin-3-yl)methyl)-2-methyl-3-(piperidin-4-yloxy)benzamide]	2.5
Cc1cc(=O)c(CNC(=O)c2cc(Cl)cc(O[C@H]3CC[C@H](N4CCCC4)CC3)c2C)c(C)[nH]1 [Example 12, 5-Chloro-N-((2,6-dimethyl-4-oxo-1,4-dihydropyridin-3-yl)methyl)-2-methyl-3-(((1r,4r)-4-(pyrrolidin-1-yl)cyclohexyl)oxy)benzamide]	0.795
Cc1cc(=O)c(CNC(=O)c2cc(Cl)cc(OC3CCN(C)CC3)c2C)c(C)[nH]1 [Example 13, 5-Chloro-N-((2,6-dimethyl-4-oxo-1,4-dihydropyridin-3-yl)methyl)-2-methyl-3-((1-methylpiperidin-4-yl)oxy)benzamide]	5
Cc1cc(=O)c(CNC(=O)c2cc(Cl)cc(O[C@H]3CC[C@H](N(C)C)CC3)c2C)c(C)[nH]1 [Example 14, 5-Chloro-N-((2,6-dimethyl-4-oxo-1,4-dihydropyridin-3-yl)methyl)-3-(((trans)-4-(dimethylamino)cyclohexyl)oxy)-2-methylbenzamide]	0.395
CCN(c1cc(Br)cc(C(=O)NCc2c(C)[nH]c(C)cc2=O)c1C)C1CCOCC1 [Example 15, 5-Bromo-N-((2,6-dimethyl-4-oxo-1,4-dihydropyridin-3-yl)methyl)-3-(ethyl(tetrahydro-2H-pyran-4-yl)amino)-2-methylbenzamide]	0.04
CCN(c1cc(Cl)cc(C(=O)NCc2c(C)[nH]c(C)cc2=O)c1C)[C@H]1CC[C@H](N(C)C)CC1 [Example 16, 5-Chloro-N-((2,6-dimethyl-4-oxo-1,4-dihydropyridin-3-yl)methyl)-3-(((trans)-4-(dimethylamino)cyclohexyl)(ethyl)amino)-2-methylbenzamide]	0.003
CCN(c1cc(Cl)cc(C(=O)NCc2c(C)[nH]c(C)c(N)c2=O)c1C)C1CCOCC1 [Example 17]	0.032
CCN(c1cc(Br)cc(C(=O)NCc2c(C)[nH]c(C)c(N)c2=O)c1C)[C@H]1CC[C@H](N(C)C)CC1 [Example 18, N-((5-Amino-2,6-dimethyl-4-oxo-1,4-dihydropyridin-3-yl)methyl)-5-bromo-3-(((1r,4r)-4-(dimethylamino)cyclohexyl)(ethyl)amino)-2-methylbenzamide]	0.032
CCN(c1cc(Br)cc(C(=O)NCc2c(C)[nH]c(C)cc2=O)c1C)[C@H]1CC[C@H](N(C)C)CC1 [Example 19, 5-Bromo-N-((2,6-dimethyl-4-oxo-1,4-dihydropyridin-3-yl)methyl)-3-(((1r,4r)-4-(dimethylamino)cyclohexyl)(ethyl)amino)-2-methylbenzamide]	0.04
CCN(c1cc(Br)cc(C(=O)NCc2c(C)[nH]c(C)c(N)c2=O)c1C)[C@H]1CC[C@H](N2CCOCC2)CC1 [Example 20, N-((5-Amino-2,6-dimethyl-4-oxo-1,4-dihydropyridin-3-yl)methyl)-5-bromo-3-(ethyl((1r,4r)-4-morpholinocyclohexyl)amino)-2-methylbenzamide]	0.05
